These results are taken from patent US11407729B2, “Quinoline and quinazoline compounds and methods of use thereof” (Stingray Therapeutics, Inc., priority 2019, dated 2022).

The target in assay [1] is T1, ENPP1 protein (Homo sapiens, UniProt P22413).
T1 sequence (P22413 1-925): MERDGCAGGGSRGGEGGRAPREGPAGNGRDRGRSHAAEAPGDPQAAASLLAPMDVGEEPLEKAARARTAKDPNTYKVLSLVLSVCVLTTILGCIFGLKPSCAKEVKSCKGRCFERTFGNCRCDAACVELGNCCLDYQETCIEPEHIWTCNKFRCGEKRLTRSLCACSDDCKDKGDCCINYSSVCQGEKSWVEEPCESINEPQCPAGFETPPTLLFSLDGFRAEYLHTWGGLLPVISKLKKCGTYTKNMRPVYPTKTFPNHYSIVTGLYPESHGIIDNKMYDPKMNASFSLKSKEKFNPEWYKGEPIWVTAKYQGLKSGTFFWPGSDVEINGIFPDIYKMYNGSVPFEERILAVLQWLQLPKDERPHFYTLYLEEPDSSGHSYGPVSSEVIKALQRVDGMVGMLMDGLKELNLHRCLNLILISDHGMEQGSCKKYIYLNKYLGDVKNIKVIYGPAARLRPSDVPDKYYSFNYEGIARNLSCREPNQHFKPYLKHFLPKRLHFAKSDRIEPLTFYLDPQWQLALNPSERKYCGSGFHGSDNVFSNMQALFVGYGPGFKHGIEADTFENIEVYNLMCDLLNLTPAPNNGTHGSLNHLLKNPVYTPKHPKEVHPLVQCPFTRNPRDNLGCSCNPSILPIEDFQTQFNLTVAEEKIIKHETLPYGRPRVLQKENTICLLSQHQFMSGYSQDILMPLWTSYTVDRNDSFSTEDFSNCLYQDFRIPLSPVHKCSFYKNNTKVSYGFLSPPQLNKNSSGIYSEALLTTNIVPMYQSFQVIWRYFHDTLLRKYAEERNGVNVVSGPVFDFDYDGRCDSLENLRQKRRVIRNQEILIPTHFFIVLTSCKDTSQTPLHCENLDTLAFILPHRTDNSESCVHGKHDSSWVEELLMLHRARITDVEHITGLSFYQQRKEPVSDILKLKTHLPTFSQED
Nature of the assay: Thermal Shift Binding Assay. Conditions: 1 μg of ENPP1 protein incubated with 100 μM of drug for 5 minutes; for ΔTm at 100 µM: read-out: Thermal Shift (Δ TmD). The procedure:
Thermal Shift Binding Assay.
The Thermal Shift Assays were implemented to study thermal stabilization of ENPP1 proteins upon ENPP1 inhibitor or ligand binding. These assays were used extensively on purified ENPP1 protein. In a 384-well plate, 1 μg of ENPP1 protein was incubated with 100 μM of the corresponding drug for 5 minutes. Each well was exposed to increasing temperatures to determine an unfolding temperature of the protein. […] 2′3′ cGAMP was used as a positive control, as it is a substrate of ENPP1.

In assay [2] the target is T1, ENPP1 protein. Nature of the assay: ENPP1 Inhibition Assay. The class given is biochemical. Also noted: purchased R&D 6136-EN-010. The note with it: substrate Thymidine 5′-monophosphate p-nitrophenol ester; 37° C. for 45 minutes; absorbance at 405 nm. The method, then:
1. ENPP1 Inhibition Assay
An eight point serial dilution of drugs was prepared in 10× in assay buffer with the final assay concentrations starting at 10 μM, 3 μM, 1 μM, 0.3 μM . . . 0 μM. A dilution of DMSO was included as a control. The assay plate was set up as follows with each well in duplicate: 81 μL assay buffer+10 μL ENPP1 inhibitor or DMSO+5 μL Substrate+4 μL Enzyme. Both the enzyme and substrate were added to opposite sides of the well to ensure that there was no interaction until all wells had both components. The plate was then centrifuged gently for 10 seconds, followed by an incubation at 37° C. for 45 minutes.
IC50 values are determined using GraphPad Prism 5 software. The data were entered as an X-Y plot into the software as percent inhibition for each concentration of the drug. The concentration values of the drug were log transformed and the nonlinear regression was carried out using the “sigmoidal dose-response (variable slope)” option within the GraphPad software to model the data and calculate IC50 values.

Turning to `COc1ccc(OC)c(S(=O)(=O)Nc2cnc3ccccc3c2)c1` [Compound I-06, 2,5-dimethoxy-N-(quinolin-3-yl)benzenesulfonamide], on ENPP1 protein [1], the ΔTm at 100 µM stood at 1.6 °C. The same molecule displayed a 50% inhibitory concentration (IC50) against ENPP1 protein [2] of 5150 nM.
For `COc1cc2nccc(N3CCC(C(C)CNS(N)(=O)=O)CC3)c2cc1N1CCOCC1` (stereo not shown) [Compound I-12], in that order: 3.6 °C and 835 nM.
For `CCC(CNS(N)(=O)=O)C1CCN(c2ccnc3cc(OC)c(OC)cc23)CC1` (stereo not shown) [Compound I-13, N-(2-(1-(6,7-dimethoxyquinolin-4-yl)piperidin-4-yl)butyl)sulfuricdiamide], in that order: 4 °C and 4.55 nM.
With “N-(2-(1-(6,7-dimethoxyquinazolin-4-yl)piperidin-4-yl)propyl)sulfonamide urea [Compound I-01]”, the “Thermal Shift (Δ TmD)” value on ENPP1 protein [1] is 5.5. Further, half-maximal inhibition at ENPP1 protein [2] (IC50) required 2.79 nM.
In the same order, the values of “N-(2-(1-(6,7-dimethoxyquinolin-4-yl)piperidin-4-yl)propyl)sulfamoylcarbamate [Compound I-02]” are 5.0 and 5.95 nM.
